According to PMC11676834, “Composition of Triterpene Glycosides of the Far Eastern Sea Cucumber Cucumaria conicospermium Levin et Stepanov; Structure Elucidation of Five Minor Conicospermiumosides A3-1, A3-2, A3-3, A7-1, and A7-2; Cytotoxicity of the Glycosides Against Human Breast Cancer Cell Lines; Structure–Activity …” (Marine Drugs, 2024):
Where two headings read alike, the source gives them in different places.

Tests used:
human erythrocytes [1] = assay: Hemolytic activity; format: cell-based; details: 1 h at 37 °C
Procedure: Human blood (B(III) Rh+) was used to obtain erythrocytes by centrifuging 450× g three times for 5 min with phosphate-buffered saline (PBS) (pH 7.4) at 4 °C on centrifuge LABOFUGE 400R (Heraeus, Hanau, Germany). Ice-cold PBS (pH 7.4) was used for resuspension of erythrocytes residue to a final optical density of 1.5 at 700 nm, which was kept on ice. Then, 10 µL of tested compound solution or control (okhotoside A1-1 (7)) were added to 90 µL of erythrocyte suspension in V-bottom 96-well plates and exposed for 1 h at 37 °C. Next, centrifugation at 900× g for 10 min on a laboratory centrifuge LMC-3000 (Biosan, Riga, Latvia), led to separation of layers, and 80 µL of supernatant was carefully decanted and transferred into new flat-plate for each. The values of erythrocyte lysis were measured on microplate photometer Multiskan FC (Thermo Fisher Scientific, Waltham, MA, USA) at λ = 570 nm as hemoglobin concentration in supernatant. The effective dose, causing lysis of 50% erythrocytes (ED50), was calculated with SigmaPlot 14.0 software. All the experiments were carried out in triple repetitions, p ≤ 0.05.

in vitro = format: cell-based, human; details: human
Description: (§1) Human erythrocytes were purchased from the Station of Blood Transfusion, Vladivostok. Human mammary epithelial cell line MCF-10A CRL-10317, human breast cancer cell lines T-47D HTB-133, MCF-7 HTB-22, and MDA-MB-231 CRM-HTB-26 were received from ATCC (Manassas, VA, USA). Culturing conditions: medium of RPMI-1640 with 1% penicillin/streptomycin (Biolot, St. Petersburg, Russia) and 10% fetal bovine serum (FBS) (Biolot, St. Petersburg, Russia) for the T-47D cell line; Minimum Essential Medium (MEM) with 1% penicillin/streptomycin sulfate (Biolot, St. Petersburg, Russia) and FBS (Biolot, St. Petersburg, Russia) to a final concentration of 10% for MCF-7 and MDA-MB-231 cells; DMEM/F12 medium with 10% FBS, 20 ng/mL EGF, […] hydrocortisone, 100 ng/mL cholera toxin, 10 μg/mL insulin, and 1% penicillin/streptomycin (BioinnLabs, Rostov-on-Don, Russia) for MCF-10A cell line.
(§2) The concentrations of tested glycosides were 0.1–50 µM; positive controls were cisplatin and okhotoside A1-1 (7). […] Then, the solutions of tested compounds with medium were replaced by 100 µL of fresh medium, and 10 µL of 3-(4,5-dimethylthiazol-2-yl)-2,5-diphenyltetrazolium bromide (MTT) (PanReac, AppliChem, Darmstadt, Germany) stock solution (5 mg/mL) was added to each well and incubated for 4 h, followed by the addition of 100 µL of SDS-HCl solution (1 g SDS/10 mL d-H2O/17 µL 6 N HCl) and further incubated for 18 h. Multiskan FC microplate photometer (Thermo Fisher Scientific, Waltham, MA, USA) was used to measure the absorbance of the converted dye formazan at 570 nm. The concentration caused the 50% cell metabolic activity inhibition (IC50) expresses the cytotoxic activity of each glycoside. The experiments were conducted in triplicate, p ≤ 0.05.

MCF-7 cells = assay: cells; format: cell-based, human; details: MTT, 24 h, read-out: Cytotoxicity, IC50, MCF-7
Description: as §1
(§3) The concentrations of tested glycosides were 0.1–50 µM; positive controls were cisplatin and okhotoside A1-1 (7). Methodology: to each well of 96-well plates, the cell suspension (180 µL) with solution (20 µL) of tested glycoside in a certain concentration was placed (MCF-10A, MCF-7, T-47D, and MDA-MB-231—7 × 10^3 cells per well) and incubated in the atmosphere with 5% CO2 at 37 °C for 24 h. Then, the solutions of tested compounds with medium were replaced by 100 µL of fresh medium, and 10 µL of 3-(4,5-dimethylthiazol-2-yl)-2,5-diphenyltetrazolium bromide (MTT) (PanReac, AppliChem, Darmstadt, Germany) stock solution (5 mg/mL) was added to each well and incubated for 4 h, followed by the addition of 100 µL of SDS-HCl solution (1 g SDS/10 mL d-H2O/17 µL 6 N HCl) and further incubated for 18 h. Multiskan FC microplate photometer (Thermo Fisher Scientific, Waltham, MA, USA) was used to measure the absorbance of the converted dye formazan at 570 nm. The concentration caused the 50% cell metabolic activity inhibition (IC50) expresses the cytotoxic activity of each glycoside. The experiments were conducted in triplicate, p ≤ 0.05.

T-47D cells = assay: cells; format: cell-based, human; details: MTT, 24 h, read-out: Cytotoxicity, IC50, T-47D
Description: as §1, §3

MDA-MB-231 cells [2] = assay: cells; format: cell-based, human
Description: as §1, §2

MCF-10A cells [3] = assay: Colony formation (clonogenic) assay, MCF-10A; format: cell-based, human
Procedure: The influence of glycosides on colony formation by MCF-10A or MDA-MB-231 cells was tested by the clonogenic assay. Cell density: 0.3 × 10^2/mL for MDA-MB-231 and for MCF-10A cells per well; incubation conditions: 10–12 days, 37 °C, atmosphere with 5% CO2; obtained: visible to eye colonies (at least 50 cells per colony); fixation with methanol (25 min); staining with 0.5% solution of crystal violet (25 min); washing and air-drying of plates. The counting of grown colonies was carried out using a BIO-PRINT-Cx4 Edge-Fixed Pad-Container (Vilber, Collégien, France) using Bio-Vision Software user and service manual-v18.01 (Vilber, Collégien, France). The results are presented as colony inhibition in comparison with the control.

MDA-MB-231 cells [4] = assay: Wound scratch migration assay; format: cell-based, human; details: 5 μM, 24 h
Procedure: Attached to special migration plate plastic bottom MDA-MB-231 cells were separated by a silicone insert (Culture-insert 2 Well 24, ibiTreat). After removing an insert, the gap between the cells was 500 ± 50 μm. Cell debris and floating cells were deleted, and the fresh culture medium was added. Then, cells were treated with various concentrations of glycosides or culture medium only (vehicle control) and left for 24 hrs. Cell migration into the wound area was observed under a fluorescence microscope (MIB-2-FL, LOMO, Russia) with objective 10× magnification.

human erythrocytes [5] = tested on: human erythrocytes; parameters: method as in PMID 38132923; details: studied earlier; ref [8]; cited from earlier work
MCF-10A cells [6] = assay: in vitro; format: cell-based, human
Description: as §1, §2

[7] = 48 h, read-out: Cytotoxicity, IC50, 48 h, MCF-10A
[8] = 72 h, read-out: Cytotoxicity, IC50, 72 h, MCF-10A
[9] = MTT, 24 h, read-out: Cytotoxicity, IC50, MCF-10A

Which HC50 (human erythrocytes [1]; Erythrocyte, read-out: ED50, Erythrocytes (hemolytic activity)) does the source give for `C=C(C)CCC[C@]1(C)OC(=O)C23CC[C@H]4C(=CC[C@H]5C(C)(C)C(O[C@@H]6OC[C@@H](OS(=O)(=O)O)[C@H](O)[C@H]6O[C@@H]6O[C@H](CO)[C@@H](O[C@@H]7O[C@H](CO)[C@@H](O)[C@H](O[C@@H]8O[C@H](CO)[C@@H](O)[C@H](OC)[C@H]8O)[C@H]7O)[C@H](O)[C@H]6O[C@@H]6OC[C@@H](O)[C@H](O)[C@H]6O)CC[C@]45C)[C@]2(C)C[C@H](OC(C)=O)C31` (some centres unmarked) [Okhotoside B1 (8), okhotoside B1] here?
Its HC50 is 1050 ± 120 nM.

And the IC50 (in vitro; [7])?
Its IC50 is 15.5 ± 0.81 µM.

And the IC50 (in vitro; [8])?
Its IC50 is 16.5 ± 0.98 µM.

And the IC50 (in vitro; [9])?
Its IC50 is 41 ± 0.81 µM.

What about the IC50 (MCF-7 cells; Homo sapiens, MCF7) of the same compound?
The IC50 was 42.9 ± 2 µM.

And the IC50 (T-47D cells; Homo sapiens, T47D)?
Its IC50 is 20.3 ± 0.85 µM.

And the “Tumor cell selectivity index (SI), IC50 MCF-10A / IC50 MDA-MB-231” value (MDA-MB-231 cells [2]; 24 h)?
Its value is 3.61.

What about the “Tumor cell selectivity index (SI), IC50 MCF-10A / IC50 MDA-MB-231” value (MDA-MB-231 cells [2]; 48 h) of the same compound?
The value was 1.32.

What about the “Tumor cell selectivity index (SI), IC50 MCF-10A / IC50 MDA-MB-231” value (MDA-MB-231 cells [2]; 72 h) of the same compound?
The value was 5.65.

What about the IC50 (MDA-MB-231 cells [2]; Homo sapiens, MDA-MB-231, 48 h, read-out: Cytotoxicity, IC50, 48 h, MDA-MB-231) of the same compound?
Its IC50 is 11.7 ± 1 µM.

And the IC50 (MDA-MB-231 cells [2]; Homo sapiens, MDA-MB-231, 72 h, read-out: Cytotoxicity, IC50, 72 h, MDA-MB-231)?
The IC50 was 2.92 ± 0.07 µM.

What about the IC50 (MDA-MB-231 cells [2]; Homo sapiens, MDA-MB-231, MTT, 24 h, read-out: Cytotoxicity, IC50, MDA-MB-231) of the same compound?
The IC50 was 11.3 ± 0.2 µM.

What about the inhibition at 5 µM (MCF-10A cells [3]; Homo sapiens, MCF-10A, 5 μM, % of the control) of the same compound?
The inhibition at 5 µM was 40.2%.

What about the “Constraint on cell motility (migration) of MDA-MB-231 cells” value (MDA-MB-231 cells [4]) of the same compound?
Its value is 97%.

For `CO[C@@H]1[C@@H](O)[C@H](O[C@@H]2[C@@H](O)[C@H](O[C@H]3[C@H](O)[C@@H](O[C@@H]4OC[C@@H](O)[C@H](O)[C@H]4O)[C@H](O[C@H]4[C@H](O[C@H]5CC[C@]6(C)C7CC[C@]8(C)[C@@H]([C@@](C)(O)C(=O)CC=C(C)C)CC[C@@]8(C)C7=CC[C@H]6C5(C)C)OC[C@@H](OS(=O)(=O)[O-])[C@@H]4O)O[C@@H]3C)O[C@H](COS(=O)(=O)[O-])[C@H]2O)O[C@H](COS(=O)(=O)[O-])[C@H]1O.[Na+].[Na+].[Na+]` (some centres unmarked) [djakonovioside F1 (15), djakonovioside F1], which “Hemolytic activity (in words)” value (human erythrocytes [5]) is on record?
Its value is “highly active”.

Which “ED50, Erythrocytes (hemolytic activity)” value (human erythrocytes [1]) does the source give for “DS-okhotoside B1 [DS-okhotoside B1 (8a)]” here?
Its value is 0.33 ± 0.03 µM.

And the IC50 (MCF-10A cells [6]; [7])?
Its IC50 is 5.81 ± 0.46 µM.

What about the IC50 (MCF-10A cells [6]; [8]) of the same compound?
Its IC50 is 2.77 ± 0.25 µM.

And the IC50 (MCF-10A cells [6]; [9])?
Its IC50 is 9.87 ± 0.73 µM.

And the IC50 (MCF-7 cells)?
Its IC50 is 18.8 ± 0.71 µM.

What about the IC50 (T-47D cells) of the same compound?
Its IC50 is 9.62 ± 0.3 µM.

And the “Tumor cell selectivity index (SI), IC50 MCF-10A / IC50 MDA-MB-231” value (MDA-MB-231 cells [2]; 24 h)?
The value was 9.06.

And the “Tumor cell selectivity index (SI), IC50 MCF-10A / IC50 MDA-MB-231” value (MDA-MB-231 cells [2]; 24 h, listed as 8a)?
The value was about 10.

And the “Tumor cell selectivity index (SI), IC50 MCF-10A / IC50 MDA-MB-231” value (MDA-MB-231 cells [2]; 48 h)?
Its value is 2.21.

And the IC50 (MDA-MB-231 cells [2]; 48 h, read-out: Cytotoxicity, IC50, 48 h, MDA-MB-231)?
The IC50 was 2.63 ± 0.14 µM.

And the “Tumor cell selectivity index (SI), IC50 MCF-10A / IC50 MDA-MB-231” value (MDA-MB-231 cells [2]; 72 h)?
Its value is 4.62.

What about the IC50 (MDA-MB-231 cells [2]; 72 h, read-out: Cytotoxicity, IC50, 72 h, MDA-MB-231) of the same compound?
The IC50 was 0.6 ± 0.03 µM.

And the IC50 (MDA-MB-231 cells [2]; MTT, 24 h, read-out: Cytotoxicity, IC50, MDA-MB-231)?
The IC50 was 1.09 ± 0.08 µM.

What about the “Influence on colony formation and growth of MCF-10A cells” value (MCF-10A cells [3]; 0.5 μM) of the same compound?
Its value is “did not influence”.
